In ChEMBL document CHEMBL4342498, “Design and Discovery of an Orally Efficacious Spiroindolinone-Based Tankyrase Inhibitor for the Treatment of Colon Cancer” (J Med Chem, 2020):

Columns and labels:
[1] = Stability in rat liver microsomes assessed as parent compound remaining at 1 uM measured after 60 mins in presence of NADPH by LC-MS/MS analysis; format: ADME, Microsome; conditions: read-out: Stability
[2] = Protein binding in human plasma assessed as unbound fraction at 1 uM measured after 24 hrs by LC-MS/MS analysis; format: ADME, cell-free
[3] = Stability in rat liver microsomes assessed as parent compound remaining at 1 uM measured after 30 mins in presence of NADPH by LC-MS/MS analysis; format: ADME, Microsome; conditions: read-out: Stability
COLO 320DM [4] = test: Antitumor activity against human COLO320DM cells xenografted in Prkdc-NOD-SCID CB17 mouse assessed as tumor growth inhibition at 300 mg/kg, po administered twice daily for 5 days followed by 2 days interval for 2 cycles relative to control; format: functional; conditions: read-out: TGI
RKO = test: Antiproliferative activity against human RKO cells assessed inhibition of cell growth measured after 5 days by MTT assay; format: functional; conditions: 120 h
[5] = Stability in mouse liver microsomes assessed as parent compound remaining at 1 uM measured after 60 mins in presence of NADPH by LC-MS/MS analysis; format: ADME, Microsome; conditions: read-out: Stability
[6] = Stability in human liver microsomes assessed as parent compound remaining at 1 uM measured after 60 mins in presence of NADPH by LC-MS/MS analysis; format: ADME, Microsome; conditions: read-out: Stability
[7] = Dose normalized AUC (infinity) in Sprague-Dawley rat at 1 mg/kg, iv; format: ADME, organism-based; conditions: in vivo
COLO 320DM [8] = test: Antitumor activity against human COLO320DM cells xenografted in Prkdc-NOD-SCID CB17 mouse assessed as tumor growth inhibition at 150 mg/kg, ip administered twice daily for 5 days followed by 2 days interval for 2 cycles relative to control; format: functional; conditions: read-out: TGI
[9] = Permeability of the compound measured after 4 hrs by PAMPA; format: ADME; conditions: read-out: permeability
[10] = Dose normalized initial plasma concentration in Sprague-Dawley rat at 1 mg/kg, iv; format: ADME, organism-based; conditions: in vivo
COLO 320DM [11] = test: Antiproliferative activity against human COLO320DM cells assessed inhibition of cell growth measured after 5 days by MTT assay; format: functional; conditions: 120 h
[12] = target: Poly [ADP-ribose] polymerase 1 (Homo sapiens, UniProt P09874); test: Inhibition of recombinant human PARP1 expressed in Escherichia coli assessed as reduction in auto-PARylation using histone as substrate measured after 45 mins in presence of biotinylated-NAD+ by ELISA
Chain of Poly [ADP-ribose] polymerase 1 (P09874 whole entry): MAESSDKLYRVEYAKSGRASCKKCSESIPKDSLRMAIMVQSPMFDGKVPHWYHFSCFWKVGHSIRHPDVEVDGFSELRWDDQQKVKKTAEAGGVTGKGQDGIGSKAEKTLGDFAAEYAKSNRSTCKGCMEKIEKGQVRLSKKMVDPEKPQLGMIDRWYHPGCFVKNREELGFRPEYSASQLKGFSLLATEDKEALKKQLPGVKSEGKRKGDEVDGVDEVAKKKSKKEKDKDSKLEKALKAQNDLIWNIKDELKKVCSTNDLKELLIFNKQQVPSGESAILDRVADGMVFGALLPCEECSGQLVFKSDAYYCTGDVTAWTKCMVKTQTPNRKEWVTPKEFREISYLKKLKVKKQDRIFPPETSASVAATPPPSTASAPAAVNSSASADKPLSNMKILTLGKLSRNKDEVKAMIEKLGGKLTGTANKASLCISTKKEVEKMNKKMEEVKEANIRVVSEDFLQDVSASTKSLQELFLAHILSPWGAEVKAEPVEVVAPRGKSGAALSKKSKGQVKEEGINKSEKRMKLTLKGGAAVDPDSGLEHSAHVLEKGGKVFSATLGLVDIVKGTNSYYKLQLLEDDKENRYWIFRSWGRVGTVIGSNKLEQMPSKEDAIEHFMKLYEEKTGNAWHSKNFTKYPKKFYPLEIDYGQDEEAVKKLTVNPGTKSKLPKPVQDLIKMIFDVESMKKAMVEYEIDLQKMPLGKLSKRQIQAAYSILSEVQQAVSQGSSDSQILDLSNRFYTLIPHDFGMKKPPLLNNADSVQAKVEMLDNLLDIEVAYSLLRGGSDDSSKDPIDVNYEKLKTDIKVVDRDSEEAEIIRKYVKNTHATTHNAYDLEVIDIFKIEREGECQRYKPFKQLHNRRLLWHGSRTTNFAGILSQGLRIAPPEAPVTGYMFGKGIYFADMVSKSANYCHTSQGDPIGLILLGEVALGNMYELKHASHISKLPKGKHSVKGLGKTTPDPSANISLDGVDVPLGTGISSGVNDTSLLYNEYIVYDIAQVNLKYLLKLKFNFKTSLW

Tankyrase 1/2 [13] = target: T1, Tankyrase 1/2 (Homo sapiens, UniProt Q9H2K2+O95271)
T1 sequence (Q9H2K2 whole entry): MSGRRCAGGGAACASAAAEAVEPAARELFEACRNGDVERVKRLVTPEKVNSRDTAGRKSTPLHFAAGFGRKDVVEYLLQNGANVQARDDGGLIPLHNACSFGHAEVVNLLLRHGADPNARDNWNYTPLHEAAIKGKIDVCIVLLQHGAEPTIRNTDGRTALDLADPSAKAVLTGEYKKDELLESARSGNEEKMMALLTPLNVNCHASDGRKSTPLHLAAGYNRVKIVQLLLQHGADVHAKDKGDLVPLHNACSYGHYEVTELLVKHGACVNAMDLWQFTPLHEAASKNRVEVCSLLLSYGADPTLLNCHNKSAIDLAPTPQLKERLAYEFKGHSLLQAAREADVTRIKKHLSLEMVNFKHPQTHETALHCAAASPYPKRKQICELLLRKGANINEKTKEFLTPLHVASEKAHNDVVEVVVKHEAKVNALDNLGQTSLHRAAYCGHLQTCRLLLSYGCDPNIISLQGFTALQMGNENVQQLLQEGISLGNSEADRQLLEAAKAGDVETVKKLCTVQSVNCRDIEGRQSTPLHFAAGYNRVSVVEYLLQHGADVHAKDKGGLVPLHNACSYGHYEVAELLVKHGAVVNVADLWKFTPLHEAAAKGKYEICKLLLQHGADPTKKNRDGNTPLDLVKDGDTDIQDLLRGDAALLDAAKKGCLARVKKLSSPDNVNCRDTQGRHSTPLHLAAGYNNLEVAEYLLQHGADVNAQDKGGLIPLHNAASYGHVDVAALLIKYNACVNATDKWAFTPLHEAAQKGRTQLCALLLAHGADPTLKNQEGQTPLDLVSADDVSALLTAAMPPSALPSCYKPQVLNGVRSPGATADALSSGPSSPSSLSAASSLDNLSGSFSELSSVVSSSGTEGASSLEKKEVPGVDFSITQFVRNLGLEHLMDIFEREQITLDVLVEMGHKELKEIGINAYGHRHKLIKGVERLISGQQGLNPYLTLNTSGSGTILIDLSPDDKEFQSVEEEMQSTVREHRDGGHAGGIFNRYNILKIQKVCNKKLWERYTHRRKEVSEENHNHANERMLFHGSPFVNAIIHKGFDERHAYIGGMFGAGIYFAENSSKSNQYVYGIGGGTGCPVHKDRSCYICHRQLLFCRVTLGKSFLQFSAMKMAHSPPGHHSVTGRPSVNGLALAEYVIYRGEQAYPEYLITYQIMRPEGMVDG
T1 sequence (O95271 whole entry): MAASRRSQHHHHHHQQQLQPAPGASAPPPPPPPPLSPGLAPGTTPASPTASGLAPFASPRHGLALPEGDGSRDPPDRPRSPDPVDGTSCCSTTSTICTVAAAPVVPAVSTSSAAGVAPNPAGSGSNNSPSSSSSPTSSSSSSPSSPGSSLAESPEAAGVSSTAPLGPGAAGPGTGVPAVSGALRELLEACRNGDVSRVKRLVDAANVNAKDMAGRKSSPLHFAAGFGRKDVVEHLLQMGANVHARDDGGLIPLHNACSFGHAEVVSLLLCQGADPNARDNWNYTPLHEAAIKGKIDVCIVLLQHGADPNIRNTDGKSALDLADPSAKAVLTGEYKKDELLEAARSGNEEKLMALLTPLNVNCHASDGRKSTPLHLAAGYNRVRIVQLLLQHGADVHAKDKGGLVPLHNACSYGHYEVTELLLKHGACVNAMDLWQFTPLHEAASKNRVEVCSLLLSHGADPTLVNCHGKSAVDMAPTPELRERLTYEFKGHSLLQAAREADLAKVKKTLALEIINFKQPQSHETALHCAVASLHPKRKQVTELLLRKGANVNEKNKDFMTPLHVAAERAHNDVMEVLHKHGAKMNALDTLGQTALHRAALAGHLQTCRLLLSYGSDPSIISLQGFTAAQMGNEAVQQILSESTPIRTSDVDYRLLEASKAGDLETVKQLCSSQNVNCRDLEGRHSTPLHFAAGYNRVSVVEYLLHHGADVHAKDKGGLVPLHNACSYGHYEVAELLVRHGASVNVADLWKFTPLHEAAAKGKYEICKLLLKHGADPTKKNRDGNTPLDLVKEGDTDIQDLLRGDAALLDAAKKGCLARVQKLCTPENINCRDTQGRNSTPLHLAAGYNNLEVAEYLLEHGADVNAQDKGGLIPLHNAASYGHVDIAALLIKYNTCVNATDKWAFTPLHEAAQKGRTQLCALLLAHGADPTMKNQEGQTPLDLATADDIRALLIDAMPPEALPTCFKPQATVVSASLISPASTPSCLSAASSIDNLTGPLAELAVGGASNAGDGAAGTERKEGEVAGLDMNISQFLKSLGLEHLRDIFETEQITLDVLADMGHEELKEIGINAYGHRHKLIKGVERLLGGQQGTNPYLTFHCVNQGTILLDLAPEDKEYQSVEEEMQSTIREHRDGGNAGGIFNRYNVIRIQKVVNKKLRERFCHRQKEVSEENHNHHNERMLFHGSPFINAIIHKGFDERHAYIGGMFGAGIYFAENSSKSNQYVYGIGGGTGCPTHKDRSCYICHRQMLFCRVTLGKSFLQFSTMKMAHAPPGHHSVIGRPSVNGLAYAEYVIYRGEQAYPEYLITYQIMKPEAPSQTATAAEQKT
Description: Inhibition of TNKS/TNKS2 (unknown origin) expressed in human DLD1 cells assessed as reduction in Wnt-signaling measured after 24 hrs by TCF-luciferase reporter gene assay

COLO 320DM [14] = test: Antiproliferative activity against human COLO320DM cells assessed as inhibition of cell growth measured after 4 days by CellTiter-Glo assay; format: functional; conditions: 96 h
[15] = Protein binding in mouse plasma assessed as unbound fraction at 1 uM measured after 24 hrs by LC-MS/MS analysis; format: ADME, cell-free
Tankyrase 1/2 [16] = target: T1, Tankyrase 1/2; conditions: hek293
Description: Inhibition of TNKS/TNKS2 (unknown origin) expressed in HEK293 cells assessed as reduction in Wnt-signaling measured after 24 hrs by TCF-luciferase reporter gene assay

[17] = target: Tankyrase 1/2 (Homo sapiens) (UniProt Q9H2K2+O95271); test: Inhibition of TNKS/TNKS2-mediated WNT/beta-catenin signaling pathway in human COLO320DM cells assessed as upregulation of AXIN2 expression at 0.1 uM measured after 16 hrs by Western blot analysis relative to control; format: cell-based

O=c1[nH]c(N2CCC3(CC2)CN(CCO)c2cc(F)cc(F)c23)nc2c1CCCC2
remaining at 1 h, 1 µM [1]: 3.2%
fraction unbound at 24 h, 1 µM [2]: 0.004 to 0.015
remaining at 0.5 h, 1 µM [3]: 12.8%
inhibition in vivo at 300 mg/kg (COLO 320DM [4]): 51.9%
GI50 (RKO): > 10000 nM
remaining at 1 h, 1 µM [5]: 3.2 to 18.3%
remaining at 1 h, 1 µM [6]: 2.2 to 5.9%
AUC/dose [7]: 4.42 µmol·h/L
inhibition in vivo at 150 mg/kg (COLO 320DM [8]): 47.2%
Papp at 4 h [9]: 2 ×10⁻⁶ cm/s
C0/dose [10]: 9.84 µM
GI50 (COLO 320DM [11]): 450 nM
IC50 [12]: > 100000 nM
IC50 (Tankyrase 1/2 [13]): 77.6 nM
GI50 (COLO 320DM [14]): 1630 nM
fraction unbound at 24 h, 1 µM [15]: 0.004 to 0.015
IC50 (Tankyrase 1/2 [16]): 12.1 nM
fold change (FC) [17]: 4.42

CS(=O)(=O)c1ccc(-c2nnc(/C=C/c3nnc(-c4ccc(C#N)cc4)o3)n2-c2ccccc2Cl)nc1
fraction unbound at 24 h, 1 µM [2]: 0.028
GI50 (RKO): 8900 nM
remaining at 1 h, 1 µM [5]: 95.8%
remaining at 1 h, 1 µM [6]: 100%
AUC/dose [7]: 0.79 µmol·h/L
C0/dose [10]: 1.54 µM
GI50 (COLO 320DM [11]): 430 nM
GI50 (COLO 320DM [14]): 1500 nM
fraction unbound at 24 h, 1 µM [15]: 0.035
